Several values for one entry are separate records, joined by “and”; a condition that tells them apart may be missing. Equal values may be shown once. Where a name gives a salt, the structure may show the parent alone. Read-outs that look alike come from different tables or passages of the source.
What was measured:
gastric-acid secretion = experiment: Test of Inhibition of Gastric-Acid Secretion by Histamine Stimulation; format: in vivo, Male SD rats; conditions: rat
Experimental: Test of Inhibition of Gastric-Acid Secretion by Histamine Stimulation
A feeding tube (fr. 3.5) for injecting test medicines was inserted into the duodenum, and the pylorus was ligatured. A polyethylene tube (inner diameter: 7 mm) was used in the anterior stomach and gastric fistula was performed. After washing the inside of the stomach with heated physiological salt solution (37° C.) several times, the body was closed. A tube with a fin was inserted into the caudal vein and was fastened with a tape and it was connected to a infusion pump (Harvard). The rats were enclosed in a KN Ballman II cage (Natsume Seisakusho). Gastric juice flowed from the fistula was collected with a messcylinder every one hour. Starting from one hour after the operation, histamine was continuously injected at a rate of 1.4 ml/hour through the caudal vein. Then, test compounds suspended in 0.5% sodium caboxy methyl cellulose (Na-CMC) were administered one hour after the start of the histamine injection. The gastric juice thus extracted in a period from one hour after the administration of the chemical to four hours after that was titrated by using an automatic titration apparatus (Kyoto Electronic) with 0.1N NaOH to adjust pH 7, and the quantity of the gastric juice was measured to obtain the total acid output.

gastric mucosa = experiment: Test of Injury to Gastric Mucosa; format: in vivo, Male Wistar rats; set-up: key to Ulcer Index: ulcer index determined by the Munchow method; conditions: oral, rat; for Ulcer Index / Ulcer occurrence (%): 5 hours; for degree of injury to the gastric mucosa: as compared with indomethacin
Experimental: Test of Injury to Gastric Mucosa
Male Wistar rats each having a body weight of about 180 to 200 g were divided into groups consisting of 10 rats and were fasted for 24 hours. After body weight of each rat has been measured, a test compound was suspended in an aqueous solution of 5% tragacanth gum and then orally administered to each rat. The rats were fasted again, and after 5 hours had passed, they were killed by cervical dislocation. A 1% formalin solution was injected into the gastric cavity of each of the rats so that it was semifixed. The gaster of each rat was cut along the greater curvature of the stomach, and the ulcer index of each rat was measured under a stereoscopic microscope and determined by the Munchow method. The Mann-Whitney U-test was applied to the statistic data processing.

[1] = system: carrageenin plantar edema; experiment: Test of Carrageenin Plantar Edema; format: in vivo, Male Wistar rats; conditions: for inhibition rate at the peak compared with that of indomethacin: 84.0 μmol/kg; for inhibition rate at the peak compared with that of indomethacin / ED50 value relative to that of indomethacin: compared with indomethacin; for ED50: read-out: Carrageenin edema ED50
Experimental: Test of Carrageenin Plantar Edema
After the body weight of each rat had been measured, the volume of the right hind-leg of the rat was measured by using an apparatus for measuring plantar volumes. The rats were then divided into groups so that the groups have the same body weight average and plantar volume average. A test compound was suspended in an aqueous solution of 5% tragacanth gum and then orally administered to each of the rats. 0.1 ml of a physiological saline of 1% carrageenin was hypodarmically injected into the sole of the right hind-leg of each rat. The volume was measured for each rat every 1 hour for 5 hours. An edema rate was determined by using a rate of increase in the volume measured after treatment to the volume measured before treatment.

ICR male mice = experiment: Acute Toxicity Test; format: in vivo; conditions: oral, single dose 25, 50 and 75 mg/kg each
Experimental: A test compound was suspended in an aqueous solution of 5% gum arabic and then orally administered to each of 4 to 5-week old ICR male mice (Charles River Co., Ltd.) each having a body weight of 22 to 30 g in each group consisting of 3 to 4 mice, once in each of doses 25, 50, 75, 200 and 500 mg/kg.

[2] = dose 25.2 μmol/kg (Example 2 19.2 mg/kg)
[3] = dose 84.0 μmol/kg (Example 2 64.0, Example 5 69.0, indomethacin 30.0 mg/kg)
[4] = dose 84.0 μmol/kg (Example 2 64.0, Example 5 69.0, indomethacin 30.0 mg/kg), ** p < 0.01
[5] = oral, rat, dose 8.4 μmol/kg (Example 2 6.4, Example 5 6.9, indomethacin 3.0 mg/kg)
[6] = oral, rat, dose 84.0 μmol/kg (Example 2 64.0, Example 5 69.0, indomethacin 30.0 mg/kg)
[7] = dose 28.0 μmol/kg (Example 5 23.0, indomethacin 10.0 mg/kg)
[8] = dose 28.0 μmol/kg (Example 5 23.0, indomethacin 10.0 mg/kg), ** p < 0.01
[9] = oral, rat, dose 28.0 μmol/kg (Example 5 23.0, indomethacin 10.0 mg/kg)

For CN/C(=N/CCSCc1nc[nH]c1C)NC#N [Cimetidine, reference compound], the “Gastric-acid secretion inhibition rate (%)” value (gastric-acid secretion; dose 30 mg/kg) was 32.3%.

With COc1ccc2c(c1)c(CC(=O)OCC(=O)NCCCOc1cccc(CN3CCCCC3)c1)c(C)n2C(=O)c1ccc(Cl)cc1 [Example 2, N-[3-[3-(piperidinomethyl)phenoxy]propyl]carbamoylmethyl 1-(4-chlorobenzoyl)-5-methoxy-2-methyl-3-indolylacetate maleate] the “Ulcer Index” value (gastric mucosa; [2]) was 1.3 ± 0.63, the “Ulcer occurrence (%)” value (gastric mucosa; [2]) was 0% and the “Ulcer occurrence (%)” value (gastric mucosa; [3]) was 14%. For the same compound, the “Ulcer Index” value (gastric mucosa; [4]) was 5.9 ± 4.92, the “Ulcer occurrence (%)” value (gastric mucosa; dose 251.9 μmol/kg (Example 2 192.0 mg/kg)) was 40% and the “Ulcer Index” value (gastric mucosa; dose 251.9 μmol/kg (Example 2 192.0 mg/kg), * p < 0.05) was 17.5 ± 15.84. For the same compound, the “degree of injury to the gastric mucosa” value (gastric mucosa) was “extremely low degree of injury”, the “inhibition rate at the peak compared with that of indomethacin” value ([1]; oral, rat) was “slightly higher” and the “Carrageenin edema inhibition (%) rate at peak” value [1, 5] was 34.9%. For the same compound, the “Carrageenin edema inhibition (%) rate at peak” value ([1]; oral, rat, dose 25.2 μmol/kg (Example 2 19.2 mg/kg)) was 50.4%, the “Carrageenin edema inhibition (%) rate at peak” value [1, 6] was 62.6% and the “ED50 value relative to that of indomethacin” value ([1]; oral, rat) was “substantially the same”. For the same compound, the ED50 ([1]; oral, rat) was 27.8 µmol/kg and 21.1 mg/kg.

In the case of COc1ccc2c(c1)c(CC(=O)OCCSCC(=O)NCCCOc1cccc(CN3CCCCC3)c1)c(C)n2C(=O)c1ccc(Cl)cc1 [Example 5, 2-[N-[3-[3-(piperidinomethyl)phenoxy]propyl]carbamoylmethylthio]ethyl 1-(4-chlorobenzoyl)-5-methoxy-2-methyl-3-indolylacetate maleate], the “Gastric-acid secretion inhibition rate (%)” value (gastric-acid secretion; dose 22 mg/kg) is reported as 47.4%, the “Gastric-acid secretion inhibition rate (%)” value (gastric-acid secretion; dose 44 mg/kg) is reported as 74.1% and the “Ulcer occurrence (%)” value (gastric mucosa; [7]) is reported as 0%. The “Ulcer Index” value (gastric mucosa; [8]) was 0.1 ± 0.01, the “Ulcer occurrence (%)” value (gastric mucosa; [3]) was 0% and the “Ulcer Index” value (gastric mucosa; [4]) was 0.0 ± 0.00. For the same compound, the “Ulcer Index” value (gastric mucosa; dose 280.0 μmol/kg (Example 5 230.0 mg/kg)) was 0.0 ± 0.00, the “degree of injury to the gastric mucosa” value (gastric mucosa) was “extremely low degree of injury” and the “inhibition rate at the peak compared with that of indomethacin” value ([1]; oral, rat) was “slightly higher”. For the same compound, the “Carrageenin edema inhibition (%) rate at peak” value [1, 5] was 19.1%, the “Carrageenin edema inhibition (%) rate at peak” value [1, 9] was 41.2% and the “Carrageenin edema inhibition (%) rate at peak” value [1, 6] was 68.4%. The “Carrageenin edema inhibition (%) rate at peak” value ([1]; oral, rat, dose 280.0 μmol/kg (Example 5 230.0 mg/kg)) was 72.7%, the “ED50 value relative to that of indomethacin” value ([1]; oral, rat) was “about 2 times” and the ED50 ([1]; oral, rat) was 47.8 µmol/kg and 39.3 mg/kg.

With COc1ccc2c(c1)c(CC(=O)O)c(C)n2C(=O)c1ccc(Cl)cc1 [Indomethacin, indomethacin, reference compound] the “Ulcer occurrence (%)” value (gastric mucosa; [7]) was 70%, the “Ulcer Index” value (gastric mucosa; [8]) was 46.5 ± 15.00 and the “Ulcer occurrence (%)” value (gastric mucosa; dose 56.0 μmol/kg (indomethacin 20.0 mg/kg)) was 70%. For the same compound, the “Ulcer Index” value (gastric mucosa; dose 56.0 μmol/kg (indomethacin 20.0 mg/kg), ** p < 0.01) was 52.8 ± 17.47, the “Ulcer occurrence (%)” value (gastric mucosa; [3]) was 80% and the “Ulcer Index” value (gastric mucosa; [4]) was 62.1 ± 16.50. The death of mice (ICR male mice) was “all the mice in the groups, to which 25, 50 and 75 mg/kg of indomethacin were respectively administered, died”, the ED50 ([1]; Rattus norvegicus, po) was 20.6 µmol/kg and 7.4 mg/kg and the “Carrageenin edema inhibition (%) rate at peak” value ([1]; oral, rat, dose 2.8 μmol/kg (indomethacin 1.0 mg/kg)) was 24.6%. For the same compound, the “Carrageenin edema inhibition (%) rate at peak” value [1, 5] was 49.8%, the “Carrageenin edema inhibition (%) rate at peak” value [1, 9] was 59.4% and the “Carrageenin edema inhibition (%) rate at peak” value [1, 6] was 55.9%.

Reference: patent US5177223A, “Indoleacetic acid derivatives, process for their preparation, and medicines containing same as active ingredients” (Zeria Pharmaceutical Co., Ltd., priority 1988, dated 1993)
